Reference: the NIST ThermoML archive (doi:10.1021/acs.jced.7b00106)
± gives the expanded uncertainty stated by the source.

Details: Hot wire method

FC(F)(F)/C=C/Cl [(E)-1-chloro-3,3,3-trifluoroprop-1-ene]
Details | thermal conductivity [W/m/K]
301.77 K, 4081 kPa, Liquid | 0.08378 ± 0.0044
301.78 K, 307 kPa, Liquid | 0.08197 ± 0.0027
301.79 K, 62991 kPa, Liquid | 0.1059 ± 0.0066
301.81 K, 65522 kPa, Liquid | 0.1076 ± 0.013
301.83 K, 48074 kPa, Liquid | 0.1002 ± 0.0061
301.88 K, 36387 kPa, Liquid | 0.09695 ± 0.003
301.89 K, 143 kPa, Gas | 0.01116 ± 0.00041
301.89 K, 62976 kPa, Liquid | 0.1058 ± 0.0068
301.9 K, 141 kPa, Gas | 0.01138 ± 0.00042
301.9 K, 65529 kPa, Liquid | 0.1065 ± 0.0073
301.91 K, 122 kPa, Gas | 0.01121 ± 0.0004
301.91 K, 42002 kPa, Liquid | 0.09897 ± 0.003
301.92 K, 130 kPa, Gas | 0.01129 ± 0.0004
301.92 K, 36223 kPa, Liquid | 0.09724 ± 0.003
301.92 K, 56462 kPa, Liquid | 0.1042 ± 0.0042
301.93 K, 47191 kPa, Liquid | 0.1005 ± 0.0034
301.94 K, 25799 kPa, Liquid | 0.09347 ± 0.0045
301.94 K, 48073 kPa, Liquid | 0.1008 ± 0.0034
301.94 K, 48421 kPa, Liquid | 0.1013 ± 0.0036
301.98 K, 30546 kPa, Liquid | 0.09459 ± 0.0031
301.99 K, 36387 kPa, Liquid | 0.09693 ± 0.0042
302 K, 16444 kPa, Liquid | 0.08896 ± 0.0036
302.01 K, 8085 kPa, Liquid | 0.08503 ± 0.0032
302.01 K, 20519 kPa, Liquid | 0.09088 ± 0.0029
302.01 K, 25500 kPa, Liquid | 0.09318 ± 0.0035
302.02 K, 41998 kPa, Liquid | 0.09906 ± 0.0033
302.03 K, 47196 kPa, Liquid | 0.1005 ± 0.0031
302.04 K, 36232 kPa, Liquid | 0.09691 ± 0.0069
302.05 K, 25799 kPa, Liquid | 0.0933 ± 0.0075
302.07 K, 11891 kPa, Liquid | 0.08755 ± 0.0049
302.07 K, 16014 kPa, Liquid | 0.08895 ± 0.0035
302.08 K, 7823 kPa, Liquid | 0.08555 ± 0.0046
302.09 K, 30563 kPa, Liquid | 0.0947 ± 0.0029
302.12 K, 7862 kPa, Liquid | 0.08568 ± 0.0045
302.12 K, 16448 kPa, Liquid | 0.08904 ± 0.0095
302.12 K, 20518 kPa, Liquid | 0.09092 ± 0.0028
302.12 K, 25501 kPa, Liquid | 0.09247 ± 0.0055
302.13 K, 365 kPa, Liquid | 0.08182 ± 0.0052
302.13 K, 8079 kPa, Liquid | 0.08538 ± 0.0035
302.16 K, 4079 kPa, Liquid | 0.0839 ± 0.0045
302.19 K, 312 kPa, Liquid | 0.08161 ± 0.0029
302.19 K, 11879 kPa, Liquid | 0.08708 ± 0.0044
302.19 K, 16009 kPa, Liquid | 0.08853 ± 0.0034
302.2 K, 7820 kPa, Liquid | 0.08528 ± 0.0028
302.24 K, 7854 kPa, Liquid | 0.08541 ± 0.0049
302.25 K, 142 kPa, Gas | 0.01122 ± 0.0004
302.25 K, 62977 kPa, Liquid | 0.106 ± 0.0033
302.26 K, 139 kPa, Gas | 0.01122 ± 0.0004
302.26 K, 383 kPa, Liquid | 0.08132 ± 0.0058
302.27 K, 65494 kPa, Liquid | 0.1068 ± 0.0063
302.28 K, 122 kPa, Gas | 0.01119 ± 0.0004
302.28 K, 130 kPa, Gas | 0.01138 ± 0.00041
302.28 K, 56452 kPa, Liquid | 0.1046 ± 0.0032
302.29 K, 4074 kPa, Liquid | 0.08366 ± 0.0028
302.3 K, 48061 kPa, Liquid | 0.1009 ± 0.0069
302.31 K, 299 kPa, Liquid | 0.08152 ± 0.0026
302.31 K, 48422 kPa, Liquid | 0.1015 ± 0.0031
302.37 K, 62973 kPa, Liquid | 0.1058 ± 0.0033
302.38 K, 36377 kPa, Liquid | 0.09716 ± 0.003
302.39 K, 42000 kPa, Liquid | 0.09898 ± 0.003
302.39 K, 65480 kPa, Liquid | 0.1069 ± 0.0065
302.4 K, 56441 kPa, Liquid | 0.104 ± 0.0033
302.41 K, 36234 kPa, Liquid | 0.09718 ± 0.003
302.41 K, 47190 kPa, Liquid | 0.1008 ± 0.0033
302.42 K, 48052 kPa, Liquid | 0.1012 ± 0.0072
302.44 K, 48420 kPa, Liquid | 0.1011 ± 0.0035
302.45 K, 25800 kPa, Liquid | 0.09349 ± 0.0032
302.47 K, 30544 kPa, Liquid | 0.0948 ± 0.0036
302.51 K, 20515 kPa, Liquid | 0.09108 ± 0.0034
302.51 K, 25497 kPa, Liquid | 0.09286 ± 0.0029
302.51 K, 36380 kPa, Liquid | 0.09677 ± 0.003
302.52 K, 41997 kPa, Liquid | 0.0988 ± 0.0038
302.53 K, 132 kPa, Gas | 0.0109 ± 0.00039
